In paper PMC7070694, “Identification of New Peptides from Fermented Milk Showing Antioxidant Properties: Mechanism of Action” (Antioxidants, 2020):
Peptide text beside a SMILES is read from it.

Assay: MTT cell viability (cytotoxicity)
Assay type: cell-based
Conditions: human, Caco-2 cells (1 × 10^4), synthetic peptides 0.05 mg/mL, no TbOOH, mean ± SD of at least three experiments, read-out: Percentage of Cell Viability, None (c)

Question: For CC[C@H](C)[C@H](NC(=O)[C@H](CCC(N)=O)NC(=O)[C@H](C)NC(=O)[C@@H]1CCCN1C(=O)[C@H](CO)NC(=O)[C@H](CCCNC(=N)N)NC(=O)[C@@H](NC(=O)[C@H](C)N)C(C)C)C(=O)N[C@@H](CC(C)C)C(=O)N[C@@H](CCC(N)=O)C(=O)N[C@@H](Cc1c[nH]c2ccccc12)C(=O)N[C@@H](CCC(N)=O)C(=O)O [A-12-Q] (H-AVRSPAQILQWQ-OH), which viability at 24 h, 50 µg/mL is on record?
Answer: 102 ± 4.69%

Question: With CC(C)C[C@H](NC(=O)[C@H](Cc1ccc(O)cc1)NC(=O)[C@H](CCC(N)=O)NC(=O)[C@@H]1CCCN1C(=O)[C@H](CC(C)C)NC(=O)[C@H](C)N)C(=O)N[C@@H](CCCCN)C(=O)N[C@H](C(=O)N[C@H](C(=O)N[C@@H](Cc1ccc(O)cc1)C(=O)N[C@@H](CCC(N)=O)C(=O)N[C@@H](Cc1c[nH]cn1)C(=O)N[C@@H](CCC(N)=O)C(=O)N[C@@H](CCCCN)C(=O)O)C(C)C)[C@@H](C)O [A-14-K] (H-ALPQYLKTVYQHQK-OH) as the compound, how does the viability at 24 h, 50 µg/mL read?
Answer: 84.4 ± 9.69%

Question: Which viability at 24 h, 50 µg/mL does the source give for CC[C@H](C)[C@H](NC(=O)[C@@H](NC(=O)[C@H](CC(N)=O)NC(=O)[C@@H](NC(=O)[C@@H](NC(=O)[C@@H]1CCCN1C(=O)[C@@H](NC(=O)[C@H](CCC(=O)O)NC(=O)[C@@H](NC(=O)[C@H](CCCCN)NC(=O)[C@@H](N)CC(=O)O)[C@@H](C)O)[C@@H](C)CC)[C@@H](C)O)[C@@H](C)CC)[C@@H](C)O)C(=O)N[C@@H](C)C(=O)N[C@@H](CO)C(=O)NCC(=O)N[C@@H](CCC(=O)O)C(=O)N1CCC[C@H]1C(=O)N[C@H](C(=O)O)[C@@H](C)O [D-17-T] (H-DKTEIPTINTIASGEPT-OH) here?
Answer: 104 ± 5.62%

Question: Which viability at 24 h, 50 µg/mL does the source give for CC[C@H](C)[C@H](NC(=O)[C@H](CCCCN)NC(=O)[C@@H](NC(=O)[C@@H](NC(=O)[C@@H]1CCCN1C(=O)[C@@H](NC(=O)CNC(=O)[C@@H](NC(=O)[C@H](CC(=O)O)NC(=O)[C@H](CC(=O)O)NC(=O)[C@H](CCCCN)NC(=O)[C@@H](N)CCC(=O)O)[C@@H](C)O)[C@@H](C)O)[C@@H](C)CC)[C@@H](C)O)C(=O)N[C@@H](CCC(=O)O)C(=O)N[C@@H](CC(C)C)C(=O)N[C@H](C(=O)N1CCC[C@H]1C(=O)N[C@@H](CO)C(=O)N[C@@H](Cc1c[nH]cn1)C(=O)O)C(C)C [E-18-H] (H-EKDDTGTPITKIELVPSH-OH) here?
Answer: 104 ± 5.01%

Question: For CC(C)[C@H](NC(=O)[C@@H]1CCCN1C(=O)[C@H](Cc1ccc(O)cc1)NC(=O)[C@H](CCCCN)NC(=O)[C@@H]1CCCN1C(=O)[C@@H](N)Cc1ccccc1)C(=O)N[C@@H](CCC(=O)O)C(=O)N1CCC[C@H]1C(=O)N[C@@H](Cc1ccccc1)C(=O)O [F-9-F] (H-FPKYPVEPF-OH), which viability at 24 h, 50 µg/mL is on record?
Answer: 109 ± 12.7%

Question: With CC[C@H](C)[C@H](NC(=O)[C@H](CCCCN)NC(=O)[C@H](CCCCN)NC(=O)[C@H](CC(C)C)NC(=O)[C@@H](N)Cc1ccccc1)C(=O)N[C@@H](CO)C(=O)N[C@@H](CCC(N)=O)C(=O)N[C@@H](CCCNC(=N)N)C(=O)N[C@@H](Cc1ccc(O)cc1)C(=O)N[C@@H](CCC(N)=O)C(=O)N[C@@H](CCCCN)C(=O)N[C@@H](Cc1ccccc1)C(=O)O [F-12-F] (H-FLKKISQRYQKF-OH) as the compound, how does the viability at 24 h, 50 µg/mL read?
Answer: 97.7 ± 19.2%

Question: Which viability at 24 h, 50 µg/mL does the source give for CSCC[C@H](NC(=O)[C@H](CCC(=O)O)NC(=O)[C@H](CCCCN)NC(=O)[C@@H](N)Cc1c[nH]cn1)C(=O)N1CCC[C@H]1C(=O)N[C@@H](Cc1ccccc1)C(=O)N1CCC[C@H]1C(=O)N[C@@H](CCCCN)C(=O)N[C@@H](Cc1ccc(O)cc1)C(=O)N1CCC[C@H]1C(=O)N[C@H](C(=O)N[C@@H](CCC(=O)O)C(=O)N1CCC[C@H]1C(=O)N[C@@H](Cc1ccccc1)C(=O)N[C@H](C(=O)N[C@@H](CCC(=O)O)C(=O)N[C@@H](CO)C(=O)N[C@@H](CCC(N)=O)C(=O)O)[C@@H](C)O)C(C)C [H-18-Q] (H-HKEMPFPKYPVEPFTESQ-OH) here?
Answer: 91.9 ± 8.99%

Question: For CC[C@H](C)[C@H](N)C(=O)N[C@@H](CCC(N)=O)C(=O)N1CCC[C@H]1C(=O)N[C@@H](CCCCN)C(=O)N[C@H](C(=O)N[C@@H](CCCCN)C(=O)N[C@H](C(=O)N[C@H](C(=O)N1CCC[C@H]1C(=O)N[C@@H](Cc1ccc(O)cc1)C(=O)N[C@H](C(=O)N[C@@H](CCCNC(=N)N)C(=O)N[C@@H](Cc1ccc(O)cc1)C(=O)N[C@@H](CC(C)C)C(=O)O)C(C)C)[C@@H](C)CC)C(C)C)[C@@H](C)O [I-14-L] (H-IQPKTKVIPYVRYL-OH), which viability at 24 h, 50 µg/mL is on record?
Answer: 93 ± 13.6%

Question: With CC[C@H](C)[C@H](N)C(=O)N[C@@H](CC(N)=O)C(=O)N[C@@H](CC(N)=O)C(=O)N[C@@H](CCC(N)=O)C(=O)N[C@@H](Cc1ccccc1)C(=O)N[C@@H](CC(C)C)C(=O)N1CCC[C@H]1C(=O)N[C@@H](Cc1ccc(O)cc1)C(=O)N1CCC[C@H]1C(=O)N[C@@H](Cc1ccc(O)cc1)C(=O)N[C@@H](Cc1ccc(O)cc1)C(=O)N[C@@H](C)C(=O)N[C@@H](CCCCN)C(=O)N1CCC[C@H]1C(=O)N[C@@H](C)C(=O)O [I-15-A] (H-INNQFLPYPYYAKPA-OH) as the compound, how does the viability at 24 h, 50 µg/mL read?
Answer: 104 ± 5.12%

Question: Which viability at 24 h, 50 µg/mL does the source give for CC[C@H](C)[C@H](NC(=O)[C@@H]1CCCN1C(=O)[C@@H](NC(=O)[C@H](Cc1ccc(O)cc1)NC(=O)[C@@H](N)CCCCN)[C@@H](C)CC)C(=O)N[C@@H](CCC(N)=O)C(=O)N[C@@H](Cc1ccc(O)cc1)C(=O)N[C@H](C(=O)N[C@@H](CC(C)C)C(=O)N[C@@H](CO)C(=O)O)C(C)C [K-10-S] (H-KYIPIQYVLS-OH) here?
Answer: 97.3 ± 6.69%

Question: For CC(C)C[C@H](NC(=O)[C@H](CC(C)C)NC(=O)[C@H](CC(N)=O)NC(=O)[C@H](CCC(=O)O)NC(=O)[C@H](CC(N)=O)NC(=O)[C@H](CC(C)C)NC(=O)[C@@H](NC(=O)[C@H](CCC(=O)O)NC(=O)[C@H](CCC(N)=O)NC(=O)[C@@H]1CCCN1C(=O)[C@H](CC(C)C)NC(=O)CNC(=O)[C@H](CCC(N)=O)NC(=O)[C@H](Cc1c[nH]cn1)NC(=O)[C@@H](N)CCCCN)C(C)C)C(=O)O [K-15-L] (H-KHQGLPQEVLNENLL-OH), which viability at 24 h, 50 µg/mL is on record?
Answer: 105 ± 14.5%

Question: With CC[C@H](C)[C@H](NC(=O)[C@H](CCC(=O)O)NC(=O)CNC(=O)[C@@H]1CCCN1C(=O)[C@@H](NC(=O)[C@@H](N)CC(N)=O)C(C)C)C(=O)N[C@H](C(=O)N[C@@H](CCC(=O)O)C(=O)N[C@@H](CO)C(=O)N[C@@H](CC(C)C)C(=O)O)C(C)C [N-10-L] (H-NVPGEIVESL-OH) as the compound, how does the viability at 24 h, 50 µg/mL read?
Answer: 120 ± 15.7%

Question: For CC(C)[C@H](NC(=O)[C@H](CCC(=O)O)NC(=O)[C@@H]1CCCN1C(=O)[C@H](Cc1ccccc1)NC(=O)[C@@H]1CCCN1)C(=O)N[C@@H](Cc1ccccc1)C(=O)NCC(=O)N[C@@H](CCCCN)C(=O)N[C@@H](CCC(=O)O)C(=O)O [P-9-E] (H-PFPEVFGKE-OH), which viability at 24 h, 50 µg/mL is on record?
Answer: 101 ± 14.5%

Question: For CC[C@H](C)[C@H](NC(=O)CNC(=O)[C@H](Cc1ccc(O)cc1)NC(=O)[C@H](CO)NC(=O)[C@@H]1CCCN1C(=O)[C@H](Cc1ccc(O)cc1)NC(=O)[C@H](CCCNC(=N)N)NC(=O)[C@H](CO)NC(=O)[C@H](CC(C)C)NC(=O)[C@@H](NC(=O)[C@H](Cc1ccc(O)cc1)NC(=O)[C@@H](N)CCC(N)=O)C(C)C)C(=O)N[C@@H](CC(N)=O)C(=O)O [Q-13-N] (H-QYVLSRYPSYGIN-OH), which viability at 24 h, 50 µg/mL is on record?
Answer: 104 ± 6.64%

Question: With CSCC[C@H](NC(=O)[C@H](Cc1c[nH]c2ccccc12)NC(=O)[C@@H](N)CO)C(=O)N[C@@H](Cc1c[nH]cn1)C(=O)N[C@@H](CCC(N)=O)C(=O)N1CCC[C@H]1C(=O)N[C@@H](Cc1c[nH]cn1)C(=O)N[C@@H](CCC(N)=O)C(=O)N1CCC[C@H]1C(=O)N[C@@H](CC(C)C)C(=O)N1CCC[C@H]1C(=O)N1CCC[C@H]1C(=O)N[C@H](C(=O)O)[C@@H](C)O [S-13-T] (H-SWMHQPHQPLPPT-OH) as the compound, how does the viability at 24 h, 50 µg/mL read?
Answer: 107 ± 12.4%

Question: With CC(C)C[C@H](NC(=O)[C@@H](NC(=O)[C@H](CCCCN)NC(=O)[C@H](CO)NC(=O)[C@H](CCC(N)=O)NC(=O)[C@@H](N)CO)C(C)C)C(=O)N1CCC[C@H]1C(=O)N[C@H](C(=O)N1CCC[C@H]1C(=O)N[C@@H](CCC(N)=O)C(=O)N[C@@H](CCCCN)C(=O)N[C@@H](C)C(=O)N[C@H](C(=O)N1CCC[C@H]1C(=O)N[C@@H](Cc1ccc(O)cc1)C(=O)N1CCC[C@H]1C(=O)N[C@@H](CCC(N)=O)C(=O)O)C(C)C)C(C)C [S-17-Q] (H-SQSKVLPVPQKAVPYPQ-OH) as the compound, how does the viability at 24 h, 50 µg/mL read?
Answer: 101 ± 7.46%

Question: With CC(C)C[C@H](NC(=O)[C@H](Cc1ccccc1)NC(=O)[C@@H]1CCCN1C(=O)[C@@H]1CCCN1C(=O)[C@@H](NC(=O)[C@@H](N)C(C)C)C(C)C)C(=O)N[C@@H](CCC(N)=O)C(=O)N1CCC[C@H]1C(=O)N[C@@H](CCC(=O)O)C(=O)O [V-9-E] (H-VVPPFLQPE-OH) as the compound, how does the viability at 24 h, 50 µg/mL read?
Answer: 107 ± 8.02%

Question: Which viability at 24 h, 50 µg/mL does the source give for CC[C@H](C)[C@H](NC(=O)[C@@H]1CCCN1C(=O)CNC(=O)[C@@H]1CCCN1C(=O)[C@H](Cc1ccccc1)NC(=O)[C@@H]1CCCN1C(=O)[C@H](Cc1ccc(O)cc1)NC(=O)[C@@H](N)C(C)C)C(=O)N1CCC[C@H]1C(=O)N[C@@H](CC(N)=O)C(=O)O [V-10-N] (H-VYPFPGPIPN-OH) here?
Answer: 111 ± 9.93%

Question: Which viability at 24 h, 50 µg/mL does the source give for CC[C@H](C)[C@H](NC(=O)[C@H](CCC(=O)O)NC(=O)[C@@H]1CCCN1C(=O)[C@@H]1CCCN1C(=O)[C@H](CO)NC(=O)[C@H](CCC(=O)O)NC(=O)[C@@H](NC(=O)[C@@H](N)C(C)C)[C@@H](C)CC)C(=O)N[C@@H](CC(N)=O)C(=O)N[C@H](C(=O)N[C@H](C(=O)N[C@@H](CCC(N)=O)C(=O)O)C(C)C)[C@@H](C)O [V-12-Q] (H-VIESPPEINTVQ-OH) here?
Answer: 113 ± 3.52%
